“Also recorded” adds a separate entry of the source. Structures can show the parent of a compound that is named as a salt.
Key:
[1] = tested on: IE2 circuit in clinically derived CMV isolate TB40E; test: Flow cytometry of TB40E infected ARPE cells; format: cell-based, human CMV (hCMV); conditions: 17 h and 20 h post infection, FIG. 21
Procedure: Flow cytometry was performed on TB40E infected ARPE cells at 17 h and 20 h post infection. The data was analyzed as described in Teng et al. Cell 2012, cited herein.

[2] = tested on: CRS sequences (tetranucleotide motif TTTA); test: bisBenzimide binding assay (fluorescence) with CRS sequences; set-up: species or system hCMV; conditions: CRS sequence 10 μM, BB33258 10 μM to 1 nM, room temperature, DPBS; FIGS. 15 and 16; trihydrochloride hydrate
Procedure: (§1) Serial dilutions for each CRS sequence were prepared. Each CRS sequence was held constant at 10 μM while BB33258 was titrated from 10 μM to 1 nM. All assays were performed at room temperature (˜25° C. in DPBS). Serial dilutions were pipetted into 96-well glass bottom plate and allowed to equilibrate for 3 hours at room temperature in the dark. Plates were then assayed for fluorescence intensity using Perkin-Elmer EnSpyre multimode plate reader. Scans from 370 nm to 580 nm for each sequence were obtained. Dilution concentrations and BB33258 combinations that saturated the PMT were excluded.

Smith strain of MCMV = test: Murine CMV replication kinetics in BALB/c mice; format: in vivo
Procedure: Murine CMV (MCMV) replication kinetics were performed in BALB/c mice using the Smith strain of MCMV as previously described (Orr et al., 2010) and on NIH 3T3 cells using same methods as for HCMV. Rhesus CMV (RhCMV) viral replication kinetics were performed on rhesus fibroblast cells as described in (Lilja et al., 2008).

[3] = tested on: DNA CRS target with purified IE2 protein; test: Gel shift assay (EMSA) of IE2-CRS; format: binding; conditions: various amounts of BB33258; FIG. 20
Procedure: IE2-MBP expressed in BL21 cells was purified using amylose column, and EMSA was performed for IE2-crs interaction as described in Macias, M. P., Stinski, M. F., 1993. PNAS. 90, 707-711.

[4] = tested on: IE2 negative feedback (LM2ig "low" cells); test: LM2ig "low" drug screen (4 day induction, high throughput flow cytometry); format: cell-based, human CMV (hCMV); conditions: induction period of 4 days, FIG. 9
Procedure: LM2ig “low” cells (˜0% GFP positive before induction) were treated with agents in duplicate for an induction period of 4 days. During this induction period, the cell culture medium was not changed; images were taken every day for 4 days. On the final day, high throughput flow cytometry was carried out on FACS IntelliCyt. Agents tested were: Hoechst 33258, Hoechst 33342, VPA, TSA, TNF-α, hexamethylene bisacetamide (HMBA), phorbol myristate acetate (PMA), neotroposin, distamycin, DAPI, gemcitabine, prednisolone, suberanilohydroxamic acid (SAHA), (2E)-N-hydroxy-3-[4-({[2-(2-methyl-1H-indol-3-yl)ethyl]amino}methyl)phenyl]acrylamide (panobinostat), thapsigargin, JQ1, prostratin, dimizane acetate, pentamidine, or bendamustine.

HCMV = HCMV infection across a range of virus concentrations, 10 days post-infection; format: cell-based, human CMV (hCMV); conditions: wide range of virus concentrations, FIG. 23
Description: All time points were taken at 10 days post-infection as described in Teng et al. Cell 2012 (cited herein).

[5] = tested on: clinically derived CMV isolate TB40E; test: HCMV TB40E virus replication and spread on epithelial cell monolayers; format: cell-based, human CMV (hCMV); conditions: FIG. 22
Description: (Cells show more CPE with drug treatment and appear more distorted and larger.) Infection at MOI of 1 on confluent epithelial cell monolayers. Images on day 5, post infection.

mCMV CRS sequence = test: bisBenzimide binding assay (fluorescence), mCMV CRS saturation curve; conditions: BB33258 titrated from 10 μM to 1 nM; FIG. 18
Procedure: as §1

[6] = tested on: IE2 negative feedback (MIEP-IE2-IRES-GFP construct, LM2ig); test: IE2 negative feedback reporter: cells harboring LM2ig (MIEP-IE2-IRES-GFP), GFP by flow cytometry; format: cell-based, human CMV (hCMV)
Procedure: (§2) MRCS fibroblasts and life-extended human foreskin fibroblasts (HFFs) (Bresnahan and Shenk, 2000) were maintained in Dulbecco's Modified Eagle's Medium (DMEM) supplemented with 10% fetal bovine serum (FBS) and 50 U/ml penicillin-streptomycin at 37° C. and 5% CO2 in a humidified incubator. ARPE-19 cells were maintained in a 1:1 mixture of DMEM/F-12 (Mediatech Inc.) with 10% FBS (HyClone) and 50 U/ml Penicillin-Streptomycin (Mediatech Inc.). Cells were treated with a final concentration of 1 mM valproic acid (VPA) (Calbiochem™), resuspended in dimethylsulfoxide, for approximately 24 hours before imaging. Cells were treated with a final concentration of 400 nM TSA (Sigma-Aldrich) resuspended in dimethylsulfoxide, for 20-24 hours, a final concentration of 10 ng/mL TNF-α (Sigma-Aldrich) resuspended in phosphate-buffered saline (PBS), or a final concentration of 1 mM VPA (Calbiochem) for approximately 24 hours before imaging.
(§3) Standard lentiviral cloning was used to create minimal major immediate early (MIE) circuits (Dull et al., 1998). The minimal MIEP-IE2-GFP and MIEP-GFP circuits are driven by a full-length ˜2.5 kb MIE promoter-enhancer (MIEP) that spans the sequence from the MIEP modulator at the 5′ edge to the junction of immediate early (IE) exons 1 and 2. The MIEP was polymerase chain reaction (PCR)-cloned from AD169 into pLEIGW in place of the EF1a promoter. This full-length MIEP drives an IE2-IRES-GFP or mCherry-IRES-GFP cassette. IE2 was cloned from pRSV-IE86 (a gift from Jay Nelson). ARPE-19 cells were infected and fluorescence-activated cell sorter (FACS) sorted for green fluorescent protein (GFP) fluorescence to create stably expressing cell lines. Cells were treated with Trichostatin-A (TSA) for 17 hours, and GFP expression was quantified by flow cytometry. Live cells were gated by forward-versus-side scattering on a FacsCalibur™ cytometer (BD Biosciences) and mean fluorescence intensity recorded. At least 20,000 live cells were recorded for each experiment and data was analyzed in FlowJo™ (Treestar Inc.).
See WO 2014/127148 for descriptions of MIEP-IE2-reporter constructs. For example, LM2ig construct is depicted in FIG. 7 of WO 2014/127148.

[7] = tested on: ARPE-19 cells stably transduced with LM2ig; test: Viability of ARPE-19 cells stably transduced with LM2ig; format: cell-based; conditions: FIG. 1, FIG. 2
Procedure: as §2, §3

[8] = tested on: latent CMV in N-Tera2 cells; test: N-Tera2 latency assay (reactivation of latent CMV); format: cell-based, human CMV (hCMV); conditions: FIG. 4 lower panel, trihydrochloride hydrate
Procedure: Reactivation of latent CMV in N-Tera2 cells was conducted as previously described in (Meier, 2001).

CN1CCN(c2ccc3[nH]c(-c4ccc5[nH]c(-c6ccc(O)cc6)nc5c4)nc3c2)CC1 [Hoechst 33258, 2′-(4-hydroxyphenyl)-5-(4-methyl-1-piperazinyl)-2,5′-bi-1H-benzimidazole trihydrochloride hydrate]
IE2 circuit / IE2 expression levels [1]: breaks the IE2 circuit and amplifies IE2 expression levels | DNA binding specificity (motif) [2]: binds primarily to a specific tetranucleotide motif (TTTA) | reduction of mCMV replication (Smith strain of MCMV): ~5 fold | binding to the CRS sequence (EMSA) [3]: binding | breaking of the IE2 negative feedback (geometric mean of GFP) [4]: specifically break the IE2 negative feedback | HCMV infection (HCMV): inhibits HCMV infection across a wide range of virus concentrations | virus fitness (TB40E replication levels) ([5]; MOI of 1, confluent epithelial cell monolayers): virus fitness loss | cell to cell spread (IE2-YFP positive cells) ([5]; MOI of 1, images on day 5 post infection): inhibits cell to cell spread | saturation of binding to mCMV CRS (mCMV CRS sequence): did not saturate within the range of concentrations tested | breaking of the IE2 negative feedback circuit ([6]; 24-28 hour exposure): breaks the IE2 negative feedback circuit | quiescent MIEP-driven expression in a reporter cell line ([6]; ARPE-19 cells harboring LM2ig, 20 μM Hoechst 33258, FACS, FIG. 4 upper panel): activated quiescent MIEP-driven expression | number of GFP-positive cells ([6]; ARPE-19 cells harboring LM2ig, Hoechst 33258 with or without VPA, FIG. 7): induced an increase | mean fluorescence intensity (MFI) ([6]; ARPE-19 cells harboring LM2ig, Hoechst 33258 with or without VPA, FIG. 8): increased MFI | production of IE2, as measured by GFP expression (GFP mean fluorescence intensity; GFP-MFI) ([6]; ARPE-19 cells stably transduced with LM2ig, FIG. 1, FIG. 2): increased production of IE2 | reactivation of the LM2ig minimal circuit ([6]; Hoechst 33258: after 24 hours): strongly reactivates | breaking of the circuit and reactivation of the promoter from an off (silenced) state ([6]; long-term (e.g., 8-10 days) exposure): breaks the circuit and reactivates the promoter | cell viability / cytotoxicity [7]: reduced cell viability | reactivation of latent CMV [8]: reactivated latent CMV; also recorded: reactivation of latent HCMV

— patent US10478431B2, “Methods for treating a cytomegalovirus infection” (priority 2014, dated 2019)
